Test system: KMS.12.BM cell line (human myeloma)
Test: KMS.12.BM cell viability assay
Assay type: cell-based
Conditions: 72 h, 3 days, ATP quantitation (Cell Titer-GLO), concentration for 50% cell death
Experimental: KMS.12.BM cell line (human myeloma) was purchased from JCRB (Osaka, Japan) and maintained in RPMI with 10% FBS culture medium. To measure the cytotoxic activity of the compounds through ATP quantitation, the KMS. 12.BM cells are plated in the RPMI culture medium at 5000 cells/well/per 100 μL into a 96-well polystyrene clear black tissue culture plate (Greiner-bio-one through VWR, NJ), in the presence or absence of a concentration range of test compounds. After 3 days, […] Cell Titer-GLO Luminescent (Promega, Madison, Wis.) cell culture agent is added to each well for 10 minutes at room temperature to stabilize the luminescent signal. This determines the number of viable cells in culture based on quantitation of the ATP present, which signals the presence of metabolically active cells. Luminescence is measured with the Top Count 384 (Packard Bioscience through Perkin Elmer, Boston, Mass.). Compound inhibition is determined relative to cells cultured with no drug and the IC50 is reported as the compound concentration required for 50% cell death.

Structure (SMILES)	IC50
Cn1cc(-c2cc(S(C)(=O)=O)cc3c2OC(c2ccccc2)C(=O)N3)c2cc[nH]c2c1=O (stereo not shown) [Example 46, 8-(6-methyl-7-oxo-6,7-dihydro-1H-pyrrolo[2,3-c]pyridin-4-yl)-6-(methylsulfonyl)-2-phenyl-2H-1,4-benzoxazin-3(4H)-one]	≤ 1000 nM
CC(=O)c1cc(-c2cn(C)c(=O)c3[nH]ccc23)c2c(c1)N(C)C(=O)C(C)(C)O2 [Example 82, 6-acetyl-2,2,4-trimethyl-8-(6-methyl-7-oxo-6,7-dihydro-1H-pyrrolo[2,3-c]pyridin-4-yl)-2H-1,4-benzoxazin-3(4H)-one]	≤ 1000 nM
CC(=O)c1cc2c(c(-c3cn(C)c(=O)c4[nH]ccc34)c1)OC(C(C)C)C(=O)N2 (stereo not shown) [Example 49, 6-acetyl-2-isopropyl-8-(6-methyl-7-oxo-6,7-dihydro-1H-pyrrolo[2,3-c]pyridin-4-yl)-2H-1,4-benzoxazin-3(4H)-one]	≤ 1000 nM
CC(=O)c1cc2c(c(-c3cn(C)c(=O)c4[nH]ccc34)c1)OC(C)(C)C(=O)N2 [Example 80, 6-acetyl-2,2-dimethyl-8-(6-methyl-7-oxo-6,7-dihydro-1H-pyrrolo[2,3-c]pyridin-4-yl)-2H-1,4-benzoxazin-3(4H)-one]	≤ 1000 nM

Reference: patent publication US11059821B2, “1H-pyrrolo[2,3-c]pyridin-7(6H)-ones and pyrazolo[3,4-c]pyridin-7(6H)-ones as inhibitors of BET proteins” (Incyte Corporation, priority 2014, dated 2021)
